The subject of one experiment is SGC-7901 cells. Kind of experiment: MTT antiproliferative assay, SGC-7901. As to conditions: Homo sapiens, read-out: IC50 (μM) ± SD SGC-7901. The experiment is classed as cell-based. On the procedure:
(§1) The in vitro antiproliferative activities of all target compounds 4a−k, 5a−h, and 6a−h were assayed by MTT method using human gastric cancer cell line SGC-7901 and human breast cancer cell line MCF-7.
(§2) All cell lines tested in this study were purchased from the American Type Culture Collection (ATCC, Manassas, VA). SGC-7901 (human gastric adenocarcinoma), HCT-116 (human colon carcinoma), and A549 (human pulmonary carcinoma) cells were cultured in RPMI-1640 medium containing 10% foetal serum (FBS) and 1% penicillin-streptomycin solution (100×). MCF-7 (human breast carcinoma) cells were cultured in DMEM medium containing 10% foetal serum (FBS) and 1% penicillin-streptomycin solution (100×). PC-3 (human prostate carcinoma) cells were cultured in Ham’s F-12K medium containing 10% foetal serum (FBS) and 1% penicillin-streptomycin solution (100×). All cells were cultured at 37 °C in a humidified atmosphere containing 5% CO2.
(§3) Cells grown in logarithmic phase were harvested and seeded onto 96-well cell plates at a density of 4 ∼ 5 × 10^3 cells per well (various from cell type) and were cultured for 24 h. Different concentrations of compounds were added into the wells, and the cells were cultured for another 72 h. The medium was removed, then 20 μL of MTT (5 mg/mL in PBS) was added to each well and the cells were incubated for 4 h. 150 μL of DMSO was added to each well to dissolve the formazan, and the absorbance at 490 nm of each well was measured by a microplate reader. IC50 values were calculated by SPSS software.

The test system of another experiment is MCF-7 cells. Kind of experiment: MTT antiproliferative assay, MCF-7. As to conditions: Homo sapiens, read-out: IC50 (μM) ± SD MCF-7. In kind it is cell-based. The procedure:
as §1, §2, §3

In a further experiment the test system is tubulin. Kind of experiment: In vitro tubulin polymerisation assay. The experiment is classed as biochemical. As to conditions: 3 μM. The procedure: To investigate the effect of compounds 4k and 5a on microtubule system, their tubulin polymerisation inhibition activities were evaluated using in vitro tubulin polymerisation assay.
The BK001 kit used in this test was purchased from Cytoskeleton Inc. (Denver, CO, USA). […] Then the mixtures were transferred to 37 °C and tubulin assembly was monitored (excitation wavelength: 360 nm; emission wavelength: 420 nm) at 1 min intervals for 90 min by a microplate reader.

The mark [1] stands for this setting: SGC-7901, 72 h drug exposure, MTT assay.
Where [2] appears, read: MCF7, 72 h drug exposure, MTT assay.

Read-outs that look alike come from different tables or passages of the source.

In general, IC50 refers to the concentration at which inhibition is half-maximal.

`COc1cc(C2=NNC(=S)Nc3cn(-c4cccc(C)c4)nc32)cc(OC)c1OC` [6b, 2–(3-Methylphenyl)-8–(3,4,5-trimethoxyphenyl)-2,6-dihydropyrazolo[4,3-e][1,2,4]triazepine-5(4H)-thione]: the figures for the IC50 in the experiment on SGC-7901 cells (setting [1]) and in the experiment on MCF-7 cells (setting [2]) were 0.366 ± 0.065 µM and 0.749 ± 0.181 µM, respectively.
Regarding `COc1cc(C2=NCC(=O)Nc3cn(-c4ccc(Cl)cc4)nc32)cc(OC)c1OC` [5h, 2–(4-Chlorophenyl)-8–(3,4,5-trimethoxyphenyl)-2,6-dihydropyrazolo[4,3-e][1,4]diazepin-5(4H)-one], the IC50 was 0.772 ± 0.004 µM in the experiment on SGC-7901 cells (setting [1]) and 0.857 ± 0.09 µM in the experiment on MCF-7 cells (setting [2]).
On to `COc1cc(C(=O)c2nn(-c3cccc(C)c3)cc2N)cc(OC)c1OC` [4b, (4-Amino-1–(3-methylphenyl)-1H-pyrazol-3-yl)(3,4,5-trimethoxyphenyl)methanone], for which the IC50 in the experiment on SGC-7901 cells (setting [1]) stood at 0.095 ± 0.011 µM; in the experiment with MCF-7 cells (setting [2]), 0.224 ± 0.06 µM.
The matching figures for `COc1cc(C2=NNC(=S)Nc3cn(-c4ccccc4F)nc32)cc(OC)c1OC` [6d, 2–(2-Fluorophenyl)-8–(3,4,5-trimethoxyphenyl)-2,6-dihydropyrazolo[4,3-e][1,2,4]triazepine-5(4H)-thione]: 0.087 ± 0.008 µM and 0.398 ± 0.079 µM.
`CC(=O)O[C@H]1C(=O)[C@@]2(C)[C@H]([C@H](OC(=O)c3ccccc3)[C@]3(O)C[C@H](OC(=O)[C@H](O)[C@@H](NC(=O)c4ccccc4)c4ccccc4)C(C)=C1C3(C)C)[C@]1(OC(C)=O)CO[C@@H]1C[C@@H]2O` [paclitaxel, reference compound]: the “effect on tubulin polymerisation (fluorescence intensity)” value with tubulin was “enhanced microtubule polymerisation”.
For `COc1cc(C2=NNC(=S)Nc3cn(-c4ccc(Cl)cc4)nc32)cc(OC)c1OC` [6h, 2–(4-Chlorophenyl)-8–(3,4,5-trimethoxyphenyl)-2,6-dihydropyrazolo[4,3-e][1,2,4]triazepine-5(4H)-thione], the half-maximal inhibitory concentration (IC50) in the experiment on SGC-7901 cells (setting [1]) is 0.485 ± 0.03 µM; in the experiment with MCF-7 cells (setting [2]), 0.662 ± 0.07 µM.
Regarding `COc1ccc(-n2cc3c(n2)C(c2cc(OC)c(OC)c(OC)c2)=NNC(=S)N3)cc1` [6g, 2–(4-Methoxyphenyl)-8–(3,4,5-trimethoxyphenyl)-2,6-dihydropyrazolo[4,3-e][1,2,4]triazepine-5(4H)-thione], the results for the IC50 in the experiment on SGC-7901 cells (setting [1]) and with MCF-7 cells (setting [2]) were 2.16 ± 0.098 µM and 1.57 ± 0.243 µM, respectively.
For `COc1cc(C(=O)c2nn(-c3ccc(C)cc3)cc2N)cc(OC)c1OC` [4c, (4-Amino-1–(4-methylphenyl)-1H-pyrazol-3-yl)(3,4,5-trimethoxyphenyl)methanone], the IC50 in the experiment with SGC-7901 cells (setting [1]) was found to be 0.234 ± 0.033 µM; in the experiment on MCF-7 cells (setting [2]) it was 3.9 ± 0.205 µM.
`COc1cc(C(=O)c2nn(-c3cccc(F)c3)cc2N)cc(OC)c1OC` [4e, (4-Amino-1–(3-fluorophenyl)-1H-pyrazol-3-yl)(3,4,5-trimethoxyphenyl)methanone]: the IC50 with SGC-7901 cells (setting [1]) came to 0.439 ± 0.037 µM; in the experiment with MCF-7 cells (setting [2]), 0.35 ± 0.023 µM.
The corresponding values for `COc1cc(C2=NCC(=O)Nc3cn(-c4ccc(F)cc4)nc32)cc(OC)c1OC` [5f, 2–(4-Fluorophenyl)-8–(3,4,5-trimethoxyphenyl)-2,6-dihydropyrazolo[4,3-e][1,4]diazepin-5(4H)-one] are 0.137 ± 0.025 µM and 1.86 ± 0.438 µM.
For the molecule `COc1cc(C(=O)c2nn(-c3ccccc3)cc2N)cc(OC)c1OC` [4a, (4-Amino-1-phenyl-1H-pyrazol-3-yl)(3,4,5-trimethoxyphenyl)methanone], the IC50 in the experiment on SGC-7901 cells (setting [1]) amounted to 0.04 ± 0.003 µM; in the experiment on MCF-7 cells (setting [2]), 0.034 ± 0.005 µM.
The matching figures for `COc1cc(C(=O)c2nn(-c3ccc(F)cc3)cc2N)cc(OC)c1OC` [4f, (4-Amino-1–(4-fluorophenyl)-1H-pyrazol-3-yl)(3,4,5-trimethoxyphenyl)methanone]: 0.092 ± 0.005 µM and 0.162 ± 0.01 µM.
Regarding `COc1cc(C(=O)c2nn(-c3ccccc3C)cc2N)cc(OC)c1OC` [4i, (4-Amino-1–(2-methylphenyl)-1H-pyrazol-3-yl)(3,4,5-trimethoxyphenyl)methanone], the IC50 in the experiment with SGC-7901 cells (setting [1]) was 0.166 ± 0.004 µM; in the experiment on MCF-7 cells (setting [2]), 2.2 ± 0.196 µM.
For the molecule `COc1ccc(-n2cc3c(n2)C(c2cc(OC)c(OC)c(OC)c2)=NCC(=O)N3)cc1` [5g, 2–(4-Methoxyphenyl)-8–(3,4,5-trimethoxyphenyl)-2,6-dihydropyrazolo[4,3-e][1,4]diazepin-5(4H)-one], the IC50 in the experiment on SGC-7901 cells (SGC-7901, 72 h) amounted to 0.841 ± 0.024 µM; in the experiment with MCF-7 cells (MCF7, 72 h), 2.86 ± 0.435 µM.
For `COc1ccc(-n2cc(N)c(C(=O)c3cc(OC)c(OC)c(OC)c3)n2)cc1` [4g, (4-Amino-1–(4-methoxyphenyl)-1H-pyrazol-3-yl)(3,4,5-trimethoxyphenyl)methanone], the IC50 in the experiment with SGC-7901 cells (setting [1]) came to 0.022 ± 0.002 µM; in the experiment with MCF-7 cells (setting [2]), 0.068 ± 0.012 µM.
Turning to `COc1cc(C2=NCC(=O)Nc3cn(-c4ccc(C)cc4)nc32)cc(OC)c1OC` [5c, 2–(4-Methylphenyl)-8–(3,4,5-trimethoxyphenyl)-2,6-dihydropyrazolo[4,3-e][1,4]diazepin-5(4H)-one], the IC50 was found to be 0.117 ± 0.01 µM with SGC-7901 cells (setting [1]) and 1.38 ± 0.433 µM in the experiment on MCF-7 cells (setting [2]).
For `COc1cc(C(=O)c2nn(-c3ccccc3F)cc2N)cc(OC)c1OC` [4d, (4-Amino-1–(2-fluorophenyl)-1H-pyrazol-3-yl)(3,4,5-trimethoxyphenyl)methanone], the results for the IC50 in the experiment with SGC-7901 cells (setting [1]) and in the experiment with MCF-7 cells (setting [2]) were 0.086 ± 0.004 µM and 0.404 ± 0.036 µM, respectively.
The corresponding values for `COc1cc(C2=NNC(=S)Nc3cn(-c4ccccc4)nc32)cc(OC)c1OC` [6a, 2-Phenyl-8–(3,4,5-trimethoxyphenyl)-2,6-dihydropyrazolo[4,3-e][1,2,4]triazepine-5(4H)-thione] are 2.74 ± 0.041 µM and 2.98 ± 0.462 µM.
The corresponding values for `COc1cc(C(=O)c2nn(-c3ccc([N+](=O)[O-])cc3)cc2N)cc(OC)c1OC` [4j, (4-Amino-1–(4-nitrophenyl)-1H-pyrazol-3-yl)(3,4,5-trimethoxyphenyl)methanone] are 0.04 ± 0.006 µM and 0.391 ± 0.083 µM.
The matching figures for `COc1cc(C2=NNC(=S)Nc3cn(-c4ccc(C)cc4)nc32)cc(OC)c1OC` [6c, 2–(4-Methylphenyl)-8–(3,4,5-trimethoxyphenyl)-2,6-dihydropyrazolo[4,3-e][1,2,4]triazepine-5(4H)-thione]: 0.151 ± 0.024 µM and 0.123 ± 0.02 µM.
`COc1cc(C2=NCC(=O)Nc3cn(-c4ccccc4F)nc32)cc(OC)c1OC` [5d, 2–(2-Fluorophenyl)-8–(3,4,5-trimethoxyphenyl)-2,6-dihydropyrazolo[4,3-e][1,4]diazepin-5(4H)-one]: the values for the IC50 in the experiment on SGC-7901 cells (setting [1]) and in the experiment on MCF-7 cells (setting [2]) were 0.053 ± 0.008 µM and 1.08 ± 0.381 µM, respectively.
In the case of `COc1cc(C2=NCC(=O)Nc3cn(-c4cccc(F)c4)nc32)cc(OC)c1OC` [5e, 2–(3-Fluorophenyl)-8–(3,4,5-trimethoxyphenyl)-2,6-dihydropyrazolo[4,3-e][1,4]diazepin-5(4H)-one], the IC50 in the experiment on SGC-7901 cells (setting [1]) came to 0.949 ± 0.017 µM; in the experiment with MCF-7 cells (setting [2]), 3.01 ± 0.534 µM.
With `COc1cc(C(=O)c2nn(-c3ccc(Cl)cc3)cc2N)cc(OC)c1OC` [4h, (4-Amino-1–(4-chlorophenyl)-1H-pyrazol-3-yl)(3,4,5-trimethoxyphenyl)methanone], the IC50 in the experiment with SGC-7901 cells (setting [1]) came to 0.318 ± 0.02 µM; in the experiment on MCF-7 cells (setting [2]), 0.098 ± 0.007 µM.
Take `COc1cc(C2=NCC(=O)Nc3cn(-c4cccc(C)c4)nc32)cc(OC)c1OC` [5b, 2–(3-Methylphenyl)-8–(3,4,5-trimethoxyphenyl)-2,6-dihydropyrazolo[4,3-e][1,4]diazepin-5(4H)-one]: the IC50 stood at 0.424 ± 0.076 µM with SGC-7901 cells (setting [1]) and 0.665 ± 0.052 µM with MCF-7 cells (setting [2]).
For `COc1cc(C2=NNC(=S)Nc3cn(-c4cccc(F)c4)nc32)cc(OC)c1OC` [6e, 2–(3-Fluorophenyl)-8–(3,4,5-trimethoxyphenyl)-2,6-dihydropyrazolo[4,3-e][1,2,4]triazepine-5(4H)-thione], the IC50 is 5.12 ± 0.099 µM in the experiment on SGC-7901 cells (setting [1]) and 6.9 ± 0.815 µM in the experiment with MCF-7 cells (setting [2]).
Turning to `COc1cc(C2=NNC(=S)Nc3cn(-c4ccc(F)cc4)nc32)cc(OC)c1OC` [6f, 2–(4-Fluorophenyl)-8–(3,4,5-trimethoxyphenyl)-2,6-dihydropyrazolo[4,3-e][1,2,4]triazepine-5(4H)-thione], the IC50 came out at 10 ± 0.078 µM with SGC-7901 cells (setting [1]) and 8.42 ± 0.954 µM with MCF-7 cells (setting [2]).

These data come from publication PMC12459184, “Design, synthesis, and bioevaluation of pyrazole-containing tubulin polymerisation inhibitors based on conformational constraint strategy” (Journal of Enzyme Inhibition and Medicinal Chemistry, 2025).
